Reference: patent EP0776155B1, “DELIVERY OF EXOGENOUS CHEMICAL SUBSTANCES TO PLANT TISSUES” (MONSANTO COMPANY, priority 1994, dated 1996)

Key:
Format in all cases: in vivo
[1] = tested on: white flatweed (Hypochoeris microcephala, HRYMI); assay: Example 51: field experiment, percent control, bruising or blasting then glyphosate spray; settings: 14 days after glyphosate application
Description: (§1) In this Example illustrative of the invention, a field experiment was conducted in the Australian Capital Territory on 5-10 cm high vegetation consisting primarily of white flatweed (Hypochoeris microcephala, HRYMI) at the rosette stage of growth and silvergrass (Vulpia sp., VLPSS) at the 1-3 tiller stage. Plots were established, 2 m wide and 10 m long, with 3 replications of each treatment.
(§2) Plots received either no physical injury, or one of two injury treatments, a prior art method described herein as "bruising" and a method of the present invention described herein as "blasting". Bruising involved driving a 2 metric ton four-wheel drive vehicle fitted with rubber tires, twice over the plot in opposite directions. For blasting, a hand-held sandblaster was used having a container of capacity 1000 cm^3 slung under the gun body. The sandblaster was made of die-cast aluminum alloy and equipped with a 6 mm nozzle. The operating pressure was 95 lb/sq inch (655 kPa). The abrasive used was a commercial product consisting of fine glass particles.
(§3) Within an hour after bruising or blasting, plots received an application of glyphosate as its isopropylamine salt in the form of the aqueous concentrate formulation sold in Australia as Roundup® herbicide, diluted appropriately in water. Application was made using a hand-held boom sprayer fitted with 11001 nozzles, operating at 250 kPa pressure and delivering 90 liters/ha spray volume.
(§4) After an interval of 14 days, a visual evaluation was performed to estimate herbicidal efficacy as percent control of plants in treated plots compared to untreated check plots.

[2] = tested on: silvergrass (Vulpia sp., VLPSS); assay: as above; settings: 14 days after glyphosate application
Description: as §1, §2, §3, §4

[3] = tested on: velvetleaf (Abutilon theophrasti, ABUTH); assay: Example 49: percent control, dry ice (solid carbon dioxide) injury then glyphosate spray
Description: In this Example illustrative of the invention, velvetleaf (Abutilon theophrasti, ABUTH) seeds were planted in 4-inch (10.1-cm) square pots filled with 100% silt loam to which 35 g/cu ft (1.25 kg/m^3) IBDU fertilzer were added, and the seeds were covered with 50% Rediearth plus 50% silt loam without fertilizer. […] The same settings were maintained before and after treatment.
Physical injury in this Example was inflicted on the above-ground portions of the plants, two weeks after planting, by means of 15-30 particles of dry ice (carbon dioxide in its solid phase) propelled on to each plant using a 1 oz (28.3 ml) French square bottle having two 3 mm holes in the lid, with vigorous shaking of the bottle 8-12 inches (20-30 cm) above the plant canopy.
After dry ice treatment, plants were sprayed with glyphosate as its isopropylamine salt, in the form of the aqueous concentrate formulation MON 2139 of Monsanto Company. Plants with and without the dry ice treatment were sprayed at the same time using a track sprayer calibrated to deliver 20 gallons/acre (187 liters/ha) water with an 8002E nozzle having a 50-mesh screen, 16 inches (41 cm) above the plant canopy. Each treatment was replicated three times. Similar glyphosate treatments were applied to plants which had not received dry ice. Plants were returned to the greenhouse after spraying. […]

[4] = tested on: velvetleaf (Abutilon theophrasti, ABUTH); assay: Example 11: percent control, time between abrasion and glyphosate application varied (hours); settings: glyphosate rate (kg a.e./ha)
Description: In these Examples illustrative of the invention, velvetleaf (Abutilon theophrasti, ABUTH) seeds were planted in 4-inch (10.1 cm) square pots containing 100% silt loam soil to which 35 grams/cu ft (1.25 kg/m^3) IBDU fertilizer was added, and covered with a mix of 50% Rediearth plus 50% silt loam. The pots were sub-irrigated and the seedlings thinned after emergence to 2 plants per pot.
Abrasion was applied using propelled 200-mesh garnet exactly as described for Examples 1-9. The herbicide used in these Examples was glyphosate as its isopropylamine salt, applied as diluted MON 2139, exactly as described for Examples 1-9.
The time period between abrasion and herbicide application was varied as follows. In Example 11, all abrasion treatments were applied within a short period of time, and herbicide applications were made 2, 4 and 24 hours after abrasion. A set of abraded plants received no herbicide at any time. In addition, herbicide applications were made to unabraded plants at two times: (i) at the time of abrasion, and (ii) 24 hours after the time of abrasion. In Example 12, all herbicide applications were made within a short period of time, and abrasion was applied 5, 2 and 1 days before herbicide application. In addition, herbicide application was made to unabraded plants.
Three replications were performed of every treatment. After treatment, all plants were placed in the greenhouse for the remainder of the experiment, and sub-irrigated. The first replicate was placed in one block in order of the treatment list for ease of viewing and the remaining replicates were randomly placed in two separate blocks.
After an interval of 12-14 days after herbicide application, a visual evaluation was performed to estimate herbicidal efficacy as percent control of treated plants compared to untreated check plants.

[5] = glyphosate rate 0.18 kg a.e./ha, injury treatment blasting
[6] = glyphosate rate 0.18 kg a.e./ha, injury treatment bruising
[7] = glyphosate rate 0.18 kg a.e./ha, injury treatment none
[8] = glyphosate rate 0.25 kg a.e./ha, injury treatment blasting
[9] = glyphosate rate 0.25 kg a.e./ha, injury treatment bruising
[10] = glyphosate rate 0.25 kg a.e./ha, injury treatment none
[11] = glyphosate rate 0.36 kg a.e./ha, injury treatment blasting
[12] = glyphosate rate 0.36 kg a.e./ha, injury treatment bruising
[13] = glyphosate rate 0.36 kg a.e./ha, injury treatment none

Q: O=C(O)CNCP(=O)(O)O [glyphosate, N-phosphonomethylglycine] was tested. Which “percent control HRYMI” value [1, 5] did it give?
A: The value was 77%.

Q: What about the “percent control HRYMI” value [1, 6] of the same molecule?
A: The value was 77%.

Q: What about the “percent control HRYMI” value [1, 7] of the same molecule?
A: The value was 62%.

Q: And the “percent control HRYMI” value [1, 8]?
A: The value was 100%.

Q: And the “percent control HRYMI” value [1, 9]?
A: The value was 80%.

Q: And the “percent control HRYMI” value [1, 10]?
A: Its value is 78%.

Q: What about the “percent control HRYMI” value [1, 11] of the same molecule?
A: The value was 100%.

Q: And the “percent control HRYMI” value [1, 12]?
A: The value was 93%.

Q: And the “percent control HRYMI” value [1, 13]?
A: The value was 92%.

Q: What about the “percent control VLPSS” value [2, 5] of the same molecule?
A: The value was 77%.

Q: What about the “percent control VLPSS” value [2, 6] of the same molecule?
A: Its value is 78%.

Q: And the “percent control VLPSS” value [2, 7]?
A: Its value is 65%.

Q: What about the “percent control VLPSS” value [2, 8] of the same molecule?
A: Its value is 82%.

Q: And the “percent control VLPSS” value [2, 9]?
A: The value was 83%.

Q: What about the “percent control VLPSS” value [2, 10] of the same molecule?
A: Its value is 85%.

Q: What about the “percent control VLPSS” value [2, 11] of the same molecule?
A: Its value is 98%.

Q: What about the “percent control VLPSS” value [2, 12] of the same molecule?
A: The value was 83%.

Q: And the “percent control VLPSS” value [2, 13]?
A: Its value is 95%.

Q: What about the “percent control of ABUTH” value ([3]; glyphosate rate 0.014 kg a.i./ha, not treated with dry ice, 5 DAT) of the same molecule?
A: Its value is 0%.

Q: What about the “percent control of ABUTH” value ([3]; glyphosate rate 0.014 kg a.i./ha, not treated with dry ice, 11 DAT) of the same molecule?
A: The value was 0%.

Q: What about the “percent control of ABUTH” value ([3]; glyphosate rate 0.014 kg a.i./ha, treated with dry ice, 5 DAT) of the same molecule?
A: The value was 0%.

Q: What about the “percent control of ABUTH” value ([3]; glyphosate rate 0.014 kg a.i./ha, treated with dry ice, 11 DAT) of the same molecule?
A: The value was 0%.

Q: What about the “percent control of ABUTH” value ([3]; glyphosate rate 0.028 kg a.i./ha, not treated with dry ice, 5 DAT) of the same molecule?
A: The value was 0%.

Q: What about the “percent control of ABUTH” value ([3]; glyphosate rate 0.028 kg a.i./ha, not treated with dry ice, 11 DAT) of the same molecule?
A: Its value is 0%.

Q: What about the “percent control of ABUTH” value ([3]; glyphosate rate 0.028 kg a.i./ha, treated with dry ice, 5 DAT) of the same molecule?
A: Its value is 0%.

Q: And the “percent control of ABUTH” value ([3]; glyphosate rate 0.028 kg a.i./ha, treated with dry ice, 11 DAT)?
A: Its value is 0%.

Q: What about the “percent control of ABUTH” value ([3]; glyphosate rate 0.056 kg a.i./ha, not treated with dry ice, 5 DAT) of the same molecule?
A: Its value is 0%.

Q: What about the “percent control of ABUTH” value ([3]; glyphosate rate 0.056 kg a.i./ha, not treated with dry ice, 11 DAT) of the same molecule?
A: The value was 0%.

Q: What about the “percent control of ABUTH” value ([3]; glyphosate rate 0.056 kg a.i./ha, treated with dry ice, 5 DAT) of the same molecule?
A: Its value is 0%.

Q: And the “percent control of ABUTH” value ([3]; glyphosate rate 0.056 kg a.i./ha, treated with dry ice, 11 DAT)?
A: The value was 2%.

Q: What about the “percent control of ABUTH” value ([3]; glyphosate rate 0.11 kg a.i./ha, not treated with dry ice, 5 DAT) of the same molecule?
A: The value was 8%.

Q: And the “percent control of ABUTH” value ([3]; glyphosate rate 0.11 kg a.i./ha, not treated with dry ice, 11 DAT)?
A: The value was 0%.

Q: What about the “percent control of ABUTH” value ([3]; glyphosate rate 0.11 kg a.i./ha, treated with dry ice, 5 DAT) of the same molecule?
A: The value was 22%.

Q: What about the “percent control of ABUTH” value ([3]; glyphosate rate 0.11 kg a.i./ha, treated with dry ice, 11 DAT) of the same molecule?
A: Its value is 8%.

Q: What about the “percent control of ABUTH” value ([3]; glyphosate rate 0.21 kg a.i./ha, not treated with dry ice, 5 DAT) of the same molecule?
A: Its value is 60%.

Q: What about the “percent control of ABUTH” value ([3]; glyphosate rate 0.21 kg a.i./ha, not treated with dry ice, 11 DAT) of the same molecule?
A: The value was 73%.

Q: What about the “percent control of ABUTH” value ([3]; glyphosate rate 0.21 kg a.i./ha, treated with dry ice, 5 DAT) of the same molecule?
A: Its value is 71%.

Q: And the “percent control of ABUTH” value ([3]; glyphosate rate 0.21 kg a.i./ha, treated with dry ice, 11 DAT)?
A: The value was 83%.

Q: What about the “percent control of ABUTH” value ([3]; glyphosate rate 0.45 kg a.i./ha, not treated with dry ice, 5 DAT) of the same molecule?
A: The value was 80%.

Q: What about the “percent control of ABUTH” value ([3]; glyphosate rate 0.45 kg a.i./ha, not treated with dry ice, 11 DAT) of the same molecule?
A: The value was 100%.

Q: And the “percent control of ABUTH” value ([3]; glyphosate rate 0.45 kg a.i./ha, treated with dry ice, 5 DAT)?
A: The value was 89%.

Q: What about the “percent control of ABUTH” value ([3]; glyphosate rate 0.45 kg a.i./ha, treated with dry ice, 11 DAT) of the same molecule?
A: The value was 100%.

Q: What about the “percent control of ABUTH” value ([3]; glyphosate rate 0.89 kg a.i./ha, not treated with dry ice, 5 DAT) of the same molecule?
A: The value was 97%.

Q: What about the “percent control of ABUTH” value ([3]; glyphosate rate 0.89 kg a.i./ha, not treated with dry ice, 11 DAT) of the same molecule?
A: Its value is 100%.

Q: What about the “percent control of ABUTH” value ([3]; glyphosate rate 0.89 kg a.i./ha, treated with dry ice, 5 DAT) of the same molecule?
A: The value was 93%.

Q: And the “percent control of ABUTH” value ([3]; glyphosate rate 0.89 kg a.i./ha, treated with dry ice, 11 DAT)?
A: The value was 100%.

Q: And the “percent control of ABUTH 14 days after glyphosate application” value (“percent control of ABUTH 14 days” for short) ([4]; abraded before 0 h, glyphosate 0.056 kg a.e./ha)?
A: Its value is 70%.

Q: What about the “percent control of ABUTH 14 days” value ([4]; abraded before 0 h, glyphosate 0.11 kg a.e./ha) of the same molecule?
A: The value was 78%.

Q: What about the “percent control of ABUTH 14 days” value ([4]; abraded before 2 h, glyphosate 0.056 kg a.e./ha) of the same molecule?
A: The value was 73%.

Q: And the “percent control of ABUTH 14 days” value ([4]; abraded before 2 h, glyphosate 0.11 kg a.e./ha)?
A: The value was 85%.

Q: And the “percent control of ABUTH 14 days” value ([4]; abraded before 4 h, glyphosate 0.056 kg a.e./ha)?
A: The value was 79%.

Q: And the “percent control of ABUTH 14 days” value ([4]; abraded before 4 h, glyphosate 0.11 kg a.e./ha)?
A: Its value is 94%.

Q: What about the “percent control of ABUTH 14 days” value ([4]; abraded before 24 h, glyphosate 0.056 kg a.e./ha) of the same molecule?
A: The value was 45%.

Q: And the “percent control of ABUTH 14 days” value ([4]; abraded before 24 h, glyphosate 0.11 kg a.e./ha)?
A: Its value is 76%.
